# Data taken from patent publication EP4335840A1, “NEW CONTRAST AGENTS FOR USE IN DIAGNOSTIC IMAGING” (priority 2022, dated 2024).
# Columns and labels:
# [1] = Water solubility in aqueous buffer; assay type: physicochemical; conditions: aqueous buffer 10 mM Tris-HCl, pH 7.4, 20°C; Gd by ICP-MS
# Description: The exploratory water solubility of the compounds is determined at room temperature (20°C) in 0.5 mL buffer solution (10 mM Tris-HCI, pH 7.4) in the microcentrifuge tubes (Eppendorf, 2.0 mL safe-lock caps). The solid compounds were added stepwise to the buffer solution. More substance is added once all the suspended material is dissolved until an equilibrium between undissolved and dissolved substance is reached. The suspension was mixed using a shaker (Heidolph Reax 2000) and treated 5 min in an ultrasound bath (Bandelin, Sonorex Super RK255H). The Gadolinium concentration of the test substance in the clear solution is measured by ICP-MS. Table 1: Solubilities of compounds in aqueous buffer at 20°C (pH 7.4).
# [2] = Complex stability (transmetallation with Zn2+, proton relaxometry); assay type: physicochemical; conditions: 72 hours, 2.5 mM Zn2+, 26 mM phosphate buffer, 37°C, pH 7.4; 1.41 T
# Description: The used method is described elsewhere (Laurent S et al., Stability of MRI paramagnetic contrast media: a proton relaxometric protocol for transmetallation assessment. Invest Radiol. 2001 Feb;36(2):115-22). In brief: A solution containing 2.5 mmol/L of test compound and 2.5 mmol/L ZnCl2 in 26 mM phosphate buffer (KH2PO4 Merck; 1.09439.1000, #HC748513, pH 7,00), was incubated at 37°C over a period of at least 3 days. If test compounds are instable under these conditions, transmetallation during this test would lead to the formation of the Zn^2+ complex of the test item, while Gd^3+ is released and precipitated as highly insoluble GdPO4.
# After 3d of incubation T1 relaxation time was observed. […] Table 2: Transmetallation stability [%] of paramagnetic contrast agents over 72 hours (2.5 mM Zn2+, 26 mM phosphate buffer, 37°C, pH 7.4).
# [3] = Relaxivity measurements at 1.41 T in water and human plasma; assay type: physicochemical; conditions: 37°C, normalized to Gd
# Description: Relaxivity measurements at 1.41 T were performed using a MiniSpec mq60 spectrometer (Bruker Analytik, Karlsruhe, Germany) operating at a resonance frequency of 60 MHz and a temperature of 37°C. The T1 relaxation times were determined using the standard inversion recovery (IR) method with a fixed relaxation delay of at least 5 × T1. The variable inversion time (TI) was calculated automatically by the standard software of the MiniSpec mq60 (8 steps). The T2 measurements were performed by using a Carr-Purcell-Meiboom-Gill (CPMG) pulse sequence, applying a relaxation delay of at least 5 × T1.
# Each relaxivity measurement was performed using three different Gd concentrations (3 concentrations between 0.05 and 2 mM). The T1 and T2 relaxation times of the example compounds 1 to 10 were measured in different media for example in water and human plasma. Human plasma preparation: For each experiment fresh blood was taken from a volunteer using 10 mL citrate-tubes (Sarstedt S-Monovette 02.1067.001, 10 mL, Citrate). The 10 mL citrate-tubes were carefully inverted 10 times to mix blood and anticoagulant and centrifuged for 15min at 1811 g at RT (Eppendorf, Centrifuge 5810R).
# The relaxivities ri (where i=1, 2) were calculated based on the measured relaxation rates Ri in water and plasma: ri = (Ri−Ri(0))/CGd [formula] where Ri(0) represent the relaxation rate of the respective solvent and CGd the concentration of the compound normalized to the Gadolinium. The Gadolinium concentrations of the investigated solutions were verified by Inductively Coupled Plasma Mass Spectrometry (ICP-MS Agilent 7500a, Waldbronn, Germany). Table 3: Relaxivities of investigated compounds in water and human plasma at 1.41 T and relaxivities of Reference compounds 1-3 (RC1-RC3) at 1.5 T in water and bovine plasma. All values are measured at 37°C and normalized to Gd and given in L mmol-1 s-1.
# OATP1B1 = biological target: T1, OATP1B1 (Homo sapiens, UniProt Q9Y6L6); experiment: Uptake into stable transfected OATP1B1 HEK 293 cells; assay type: cell-based; conditions: OATP1B1-HEK 293 cell uptake with Rifampicine
# T1 sequence (Q9Y6L6 1-691): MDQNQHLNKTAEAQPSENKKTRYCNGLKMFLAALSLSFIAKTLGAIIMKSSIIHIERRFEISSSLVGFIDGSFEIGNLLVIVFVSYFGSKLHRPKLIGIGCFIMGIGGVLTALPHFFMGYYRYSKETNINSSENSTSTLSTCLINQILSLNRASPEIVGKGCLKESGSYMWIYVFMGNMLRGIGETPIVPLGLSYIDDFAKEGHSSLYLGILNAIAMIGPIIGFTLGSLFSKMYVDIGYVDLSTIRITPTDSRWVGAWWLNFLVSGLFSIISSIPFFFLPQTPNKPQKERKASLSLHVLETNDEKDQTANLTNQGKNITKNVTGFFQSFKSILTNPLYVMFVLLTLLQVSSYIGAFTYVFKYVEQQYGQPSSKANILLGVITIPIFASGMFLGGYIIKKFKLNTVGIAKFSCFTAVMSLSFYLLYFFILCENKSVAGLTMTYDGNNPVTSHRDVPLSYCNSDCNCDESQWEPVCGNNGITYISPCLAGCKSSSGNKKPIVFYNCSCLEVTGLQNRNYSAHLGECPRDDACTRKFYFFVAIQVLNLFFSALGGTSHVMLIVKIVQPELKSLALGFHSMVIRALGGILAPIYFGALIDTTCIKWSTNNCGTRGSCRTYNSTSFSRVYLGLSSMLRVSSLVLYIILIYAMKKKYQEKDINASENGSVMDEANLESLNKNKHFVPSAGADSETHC
# OATP1B3 = biological target: T2, OATP1B3 (Homo sapiens, UniProt Q9NPD5); experiment: Uptake into stable transfected OATP1B3 HEK 293 cells; assay type: cell-based; conditions: OATP1B3-HEK 293 cell uptake with Rifampicine
# T2 sequence (Q9NPD5 1-702): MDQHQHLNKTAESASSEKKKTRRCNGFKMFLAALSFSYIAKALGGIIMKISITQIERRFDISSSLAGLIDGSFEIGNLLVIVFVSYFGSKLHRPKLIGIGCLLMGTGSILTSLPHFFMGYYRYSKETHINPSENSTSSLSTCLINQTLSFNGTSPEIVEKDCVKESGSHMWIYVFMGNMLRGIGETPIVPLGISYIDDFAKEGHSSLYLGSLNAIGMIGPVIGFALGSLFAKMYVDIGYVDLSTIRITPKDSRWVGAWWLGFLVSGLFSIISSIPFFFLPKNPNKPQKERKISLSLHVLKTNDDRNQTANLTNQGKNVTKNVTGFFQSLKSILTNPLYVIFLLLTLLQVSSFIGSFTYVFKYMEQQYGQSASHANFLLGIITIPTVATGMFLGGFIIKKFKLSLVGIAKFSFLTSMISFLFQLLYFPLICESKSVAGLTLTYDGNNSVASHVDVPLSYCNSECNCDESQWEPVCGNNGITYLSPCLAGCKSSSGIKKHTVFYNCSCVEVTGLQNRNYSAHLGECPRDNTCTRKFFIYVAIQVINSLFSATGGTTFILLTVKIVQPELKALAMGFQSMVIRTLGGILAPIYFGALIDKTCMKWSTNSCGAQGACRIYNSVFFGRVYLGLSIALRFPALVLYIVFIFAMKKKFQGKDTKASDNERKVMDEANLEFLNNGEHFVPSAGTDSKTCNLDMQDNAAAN
# [4] = test system: freshly isolated rat hepatocytes; experiment: Uptake into freshly isolated rat hepatocytes; conditions: rat hepatocyte uptake with OATP1B1/1B3 inhibitor Rifampicine, test item and inhibitor each 100 µM
# Description: The rat hepatocytes were incubated (2.5 ·10^5 cells/well) for 2.5 to 4h in collagen coated 24-well plates (Fa. Beckton Dickinson Biocoat, cell environments, Collagen I Cellware) in Williams E-medium (Fa. Sigma W1878) in an incubator (37°C, 5% CO2 and 95% oxygen). After incubation the adherent hepatocytes were washed once with 37°C Hepes carbonate transport buffer (500 µL/well). The test items and RC1 were prepared from stock solutions (180 to 500 mM concentration) in Hepes carbonate transport buffer at pH 7.4 to reach a final concentration of 100 µmοl Gd/L. The specific uptake of the test item or RC1 into rat hepatocytes via OATP1 B1 and OATP1 B3 was challenged using a known OATP1B1/1B3 inhibitor (Rifampicine, Fa. Sigma R3501, test item and inhibitor 1:1 each 100 µM final concentration). The prepared rat hepatocyte plates were incubated with test solutions (500 µL/well) at 37°C for 10 min using a thermoshaker (Fa. Grant Bio, PHMP). Triplicates were performed for each test item. After incubating the cells were washed once with cold PBS buffer (Fa. Gibco, Dulbeccos PBS (+)). After washing the intact hepatocytes were lysed by addition of 500 µL cold 0.01 % Triton-X 100 in Millipore water for 1h. […] After 1h 500 µL of 10 nM Terbium ICP-MS standard was added in 2% nitric acid and 0.01% Triton 100 before the Gadolinium concentrations in the lysate were measured using ICP-MS (Agilent 8900, singleQuad, integr. Time 0.3 s, no gas, 5 replicates, Gd m/z 157, Tb m/z 159). As a reference standard RC1 is used in the same well plate. The hepatocyte uptake of the test compound is calculated relative to RC1 (resulting in the unit % of RC1).
# [5] = No-observed-adverse-effect level (NOAEL), intravenous bolus; conditions: mice, intravenous bolus via tail vein, dose levels up to 2.5 mmol Gd/kg bw
smiles,measurement,setting,value
"CCOc1ccc(CC2CN(CC(=O)[O-])CCN(CC(=O)[O-])CCN(CC(=O)O)CCN2CC(=O)[O-])cc1.[Gd+3] (centres unmarked) [Example 7, Gadolinium-2,2',2""-[10-(carboxymethyl)-2-(4-ethoxybenzyl)-1,4,7,10-tetraazacyclododecane-1,4,7-triyl]triacetate]",Solubility,[1],> 403 mM
same,"Stability (transmetallation stability, T1 relaxation rates R1n/R10)",[2],98%
same,r1 human plasma,[3]; human plasma,6.2 L/mmol/s
same,r1 water,[3]; water,4.5 L/mmol/s
same,Inhibition Rifampicine,OATP1B1,78 % inhibition
same,Inhibition Rifampicine,OATP1B3,95 % inhibition
same,Inhibition Rifampicine,[4],96 % inhibition
same,NOAEL,[5],1.50 mmol Gd/kg bw
